Measured values: patent US7517909B2, “Amino acids with affinity for the α2δ-protein” (Pfizer Inc, priority 2002, dated 2009)
Counter-ions that a name gives are not always drawn.

Assays:
[1] = target: T1, α2δ-subunit of a calcium channel (Sus scrofa, UniProt A0A287BIN3); experiment: radioligand binding assay using [3H]-gabapentin; settings: α2δ-subunit derived from porcine brain tissue
T1 construct: the α2δ-subunit derived from porcine brain tissue was used; from tissue; host or cells: porcine brain tissue
T1 sequence (A0A287BIN3 25-1109): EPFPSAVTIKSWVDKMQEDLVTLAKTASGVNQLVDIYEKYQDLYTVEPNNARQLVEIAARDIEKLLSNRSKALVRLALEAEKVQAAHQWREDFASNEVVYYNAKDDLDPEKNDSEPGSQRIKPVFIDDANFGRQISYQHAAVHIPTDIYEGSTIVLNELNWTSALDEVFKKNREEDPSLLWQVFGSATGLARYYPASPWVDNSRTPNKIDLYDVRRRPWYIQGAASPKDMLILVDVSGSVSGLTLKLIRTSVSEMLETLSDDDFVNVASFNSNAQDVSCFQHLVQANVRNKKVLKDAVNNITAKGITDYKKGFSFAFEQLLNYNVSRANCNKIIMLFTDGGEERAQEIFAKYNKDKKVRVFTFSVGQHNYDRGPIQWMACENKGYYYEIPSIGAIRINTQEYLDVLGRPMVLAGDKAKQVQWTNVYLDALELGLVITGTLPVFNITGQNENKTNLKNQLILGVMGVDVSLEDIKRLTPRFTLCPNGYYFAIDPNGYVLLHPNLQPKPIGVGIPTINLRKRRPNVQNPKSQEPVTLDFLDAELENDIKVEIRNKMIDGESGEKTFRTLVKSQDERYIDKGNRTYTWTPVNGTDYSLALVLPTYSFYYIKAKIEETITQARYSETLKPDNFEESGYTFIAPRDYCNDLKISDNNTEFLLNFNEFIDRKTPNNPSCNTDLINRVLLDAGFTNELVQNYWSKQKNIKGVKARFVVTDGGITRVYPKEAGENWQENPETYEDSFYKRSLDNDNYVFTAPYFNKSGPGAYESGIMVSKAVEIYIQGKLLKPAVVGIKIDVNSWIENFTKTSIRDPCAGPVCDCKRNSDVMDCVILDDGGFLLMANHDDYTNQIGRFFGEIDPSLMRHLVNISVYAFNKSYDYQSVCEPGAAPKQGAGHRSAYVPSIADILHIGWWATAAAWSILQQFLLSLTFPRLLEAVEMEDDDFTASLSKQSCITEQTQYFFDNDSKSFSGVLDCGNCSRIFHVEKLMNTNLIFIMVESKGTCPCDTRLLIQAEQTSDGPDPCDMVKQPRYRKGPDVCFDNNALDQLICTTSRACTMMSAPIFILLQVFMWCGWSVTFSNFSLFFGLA
Description: The ability of compounds of the present invention to bind to the α2δ-subunit of a calcium channel can be determined using the following binding assay.
The radioligand binding assay using [^3H]-gabapentin and the α2δ-subunit derived from porcine brain tissue was used (See, Gee, Nicolas S et at “The novel anticonvulsant drug, gabapentin (Neurontin), binds to the α2δ subunit of a calcium channel”. J. Biol. Chem. (1996), 271(10), 5768-76). Compounds of the invention bind with nanomolar to micromolar affinity for the α2δ protein.

Compound | melting point [°C] | affinity to the α2δ protein [1] [nM]
CCC[C@@H](C)C[C@H](N)CC(=O)O.Cl | 142.5 to 142.7 | 
CCCC[C@@H](C)C[C@H](N)CC(=O)O (as salt: hydrochloride) | 142.5 to 143.3 | 
CCCC(C)(C)C[C@H](N)CC(=O)O (as salt: hydrochloride) | 194.2 to 195.2 | 
CCC[C@@H](C)C[C@H](CN)C(=O)O (as salt: hydrochloride) [(2R,4R)-2-Aminomethyl-4-methyl-heptanoic acid] | 226.3 to 228 | 
CCCC(C)(C)CC(CN)C(=O)O.Cl (stereo not drawn) [2-Aminomethyl-4,4-dimethyl-heptanoic acid hydrochloride] | 229.5 to 231 | 83
CCC[C@@H](C)C[C@H](CN)C(=O)O [(2R,4R)-2-Aminomethyl-4-methyl-heptanoic acid] |  | 29
CCC[C@H](C)C[C@H](N)CC(=O)O [(3S,5S)-3-amino-5-methyl-octanoic acid] |  | 1000
CC(C)CCCC(C)C[C@@H](N)CC(=O)O (stereo partly drawn) [R-3-amino-5,9-dimethyl-decanoic acid] |  | 527
